Like-named read-outs stand apart in the source and are kept apart here.
What was measured:
Fusarium graminearum [1] = format: cell-based
Verticillium dahliae [2] = format: cell-based
Verticillium dahliae [3] = conditions: plants expressing AlfAFP; cited from earlier work
Fusarium graminearum [4] = conditions: cited from earlier work
[5] = High Ionic Strength Media (50 mM K+, 1 mM Ca2+)

| Substance | minimun concentration of protein required to inhibit fungal growth (Fusarium graminearum [1]; [5]) | minimun concentration of protein required to inhibit fungal growth (Fusarium graminearum [1]; Standard Media) [ppm] | minimum concentration of protein required to inhibit fungal growth (Verticillium dahliae [2]; [5]) [ppm] | minimum concentration of protein required to inhibit fungal growth (Verticillium dahliae [2]; Standard Media) [ppm] | agronomic effect on potato tuber size (Verticillium dahliae [3]) | protection of plants infected with Fusarium head blight (Fusarium graminearum [4]) |
| --- | --- | --- | --- | --- | --- | --- |
| Alf3: AlfAFP variant: AsnTyr inserted between C33 and R34 (RTCENLADKYRGPCFSGCDTHCTTKENAVSGRCNYRDDFRCWCTKRC; listed as Medicago sativa) | >>>20 ppm | 20 |  |  |  |  |
| Alf - wt: native alfalfa antifungal protein (plant defensin from Medicago sativa seeds), SEQ ID NO:2 (RTCENLADKYRGPCFSGCDTHCTTKENAVSGRCRDDFRCWCTKRC; listed as Medicago sativa) | 15-20 ppm | 10 | 15 | 5 | reduction in potato tuber size | unable to provide an adequate level of protection |

From US8067542B1 (priority 2003, dated 2011)
